According to patent US20090181948A1, “DIAMINE DERIVATIVE” (KYOWA HAKKO KOGYO CO., LTD., priority 2005, published 2009):

How the values were obtained:
[1] = target: T1, histamine H3 receptor (Rattus norvegicus, UniProt Q9QYN8); assay: Inhibitory effect on histamine release suppressive action of histamine H3 receptor agonist (Nα-methylhistamine) in rat forebrain synaptosomes; type: biochemical; settings: 1 μmol/L test compound and 1 μmol/L Nα-methylhistamine, potassium 30 mmol/L stimulation, read-out: Inhibition ratio of the [3H]-histamine release suppressive action of Nα-methylhistamine
T1 construct: from tissue; host or cells: rat striatum (Sprague-Dawley, male, 6 weeks), membrane homogenate

[2] = target: T1, histamine H3 receptor; assay: Histamine H3 receptor binding assay ([3H]-Nα-methylhistamine binding to rat striatum homogenate); settings: 1 μmol/L test compound; [3H]-Nα-methylhistamine 1 nmol/L; striata of Sprague-Dawley male rats, 25° C., 1 hour; read-out: Inhibition ratio of [3H]-Nα-methylhistamine binding
Procedure, shortened: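 Rat striatum membranes (20 μg protein) incubated with [3H]-Nα-methylhistamine 1 nmol/L in 50 mmol/L Tris/HCl pH 7.4, 5 mmol/L EDTA, 1 hour at 25° C; bound ligand by filtration and scintillation counting. Nonspecific binding defined with 10 μmol/L thioperamide; % inhibition reported at 1 μmol/L compound.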

T1 sequence (Q9QYN8 whole entry): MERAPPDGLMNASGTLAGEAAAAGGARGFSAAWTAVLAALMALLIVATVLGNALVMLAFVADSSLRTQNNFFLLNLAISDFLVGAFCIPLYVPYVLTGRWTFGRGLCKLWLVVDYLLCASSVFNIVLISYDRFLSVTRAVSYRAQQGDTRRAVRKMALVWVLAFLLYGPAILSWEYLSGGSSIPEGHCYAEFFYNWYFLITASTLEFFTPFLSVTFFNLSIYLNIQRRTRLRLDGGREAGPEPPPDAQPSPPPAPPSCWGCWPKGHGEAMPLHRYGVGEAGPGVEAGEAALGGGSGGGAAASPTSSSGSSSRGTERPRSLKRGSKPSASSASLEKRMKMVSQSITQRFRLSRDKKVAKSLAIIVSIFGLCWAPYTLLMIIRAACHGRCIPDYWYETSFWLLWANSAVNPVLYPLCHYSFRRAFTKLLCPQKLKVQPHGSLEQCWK

Row | Structure (SMILES) | melting point [°C] | inhibition at 1 µM [1] [%] | inhibition at 1 µM [2] [%]
1 | CC1CCCN1CCCN1CCN(CCCN2CCCC2C)C1=CS(=O)(=O)CC#N (stereo not drawn) [Compound 137, {1,3-Bis[3-(2-methylpyrrolidin-1-yl)propyl]imidazolidin-2-ylidene}methanesulfonylacetonitrile] | 106 to 110 | ≥ 70 | ≥ 80
2 | CN(CCCN1CCOCC1)C(=C(C#N)C#N)N1CCC(N2CCCCC2)CC1 [Compound 166] | 104 to 106 | ≥ 70 | ≥ 80
3 | N#CC(C#N)=C(NCCN1CCCCC1)N1CCC(N2CCCCC2)CC1 [Compound 143, [(2-Piperidinoethylamino)(4-piperidinopiperidino)methylene]malononitrile] | 198 to 200 | ≥ 70 | ≥ 80
4 | N#CC(C#N)=C(NCCCN1CCOCC1)N1CCC(N2CCCCC2)CC1 [Compound 165, [(4-Piperidinopiperidino)(3-morpholinopropylamino)methylene]malononitrile] | 77 to 80 | ≥ 70 | ≥ 80
5 | CC(C)N1CCC(N(C)C(=C(C#N)C#N)N2CCC(CN3CCCC3C)CC2)CC1 (stereo not drawn) [Compound 181, {[N-(1-isopropylpiperidin-4-yl)-N-methylamino][4-(2-methylpyrrolidin-1-ylmethyl)piperidino]methylene}malononitrile] | 138 to 140 | ≥ 70 | ≥ 80

Continued, values first:

Row | melting point [°C] | inhibition at 1 µM [1] [%] | inhibition at 1 µM [2] [%] | Structure (SMILES)
6 | 116 to 117 | ≥ 70 | ≥ 80 | CN(CCCN1CCCCC1)C(=C(C#N)C#N)N1CCC(N2CCCC2)CC1 [Compound 159, {[N-methyl-N-(3-piperidinopropyl)amino][4-(pyrrolidin-1-yl)piperidino]methylene}malononitrile]
7 | 104 to 105 | ≥ 70 | ≥ 80 | N#CC(C#N)=C1N(CCCN2CCCCC2)CCN1C1CCN(C2CC2)CC1 [Compound 226, [1-(1-Cyclopropylpiperidin-4-yl)-3-(3-piperidinopropyl)imidazolidin-2-ylidene]malononitrile]
8 | 117 to 118 | ≥ 70 | ≥ 80 | N#CC(C#N)=C(NCCCN1CCCCC1)N1CCC(N2CCCCC2)CC1 [Compound 160, [(4-Piperidinopiperidino)(3-piperidinopropylamino)methylene]malononitrile]
9 | 104 to 106 | ≥ 70 | ≥ 80 | N#CC(C#N)=C1N(CCCN2CCOCC2)CCN1C1CCN(C2CC2)CC1 [Compound 235, [1-(1-Cyclopropylpiperidin-4-yl)-3-(3-morpholinopropyl)imidazolidin-2-ylidene]malononitrile]
10 | 89 to 90 | ≥ 70 | ≥ 80 | C[C@@H]1CCCN1CCN1CCN(CCCN2CCCCC2)C1=C(C#N)C#N [Compound 193, {1-[2-((R)-2-methylpyrrolidin-1-yl)ethyl]-3-(3-piperidinopropyl)imidazolidin-2-ylidene}malononitrile]
